From US12427103B2, “Cosmetic composition containing Hibiscus manihot l. extract and method for preparing the same” (ALL IN ON Co., Ltd, priority 2022, dated 2025)

Legend:
[1] = tested on: RAW264.7 cells; assay: Anti-inflammatory effect: nitric oxide (NO) formation inhibition, GRIESS method, LPS stimulus; assay type: cell-based, mouse; conditions: RAW264.7, 10 ppm, LPS 1 μg, 24 hours
Protocol: An anti-inflammatory effect was confirmed with respect to above Examples 1 to 4 and Comparative Examples 1 to 8.
In order to confirm the anti-inflammatory effect and skin trouble alleviation effect of Examples 1 to 4 and Comparative Examples 1 to 8, an experiment on nitric oxide (NO) formation inhibitory power was performed with a GRIESS method using RAW264.7 cell lines (ATCC number: CRL-2278).
Specifically, RAW264.7 cells, which are mouse macrophages, were subcultured several times and placed in a 24-well plate so that 3×10^5 cells were put into each well, and then incubated for 24 hours. Then, Examples 1 to 4 and Comparative Examples 1 to 8 were replaced with a diluted cell medium at a concentration of 10 ppm. At this time, L-NMMA (L-NG-Monomethylarginine), a NO-production inhibitor, was treated together as a positive control and incubated for 30 minutes, and then 1 μg of lipopolysaccharide (LPS) was treated as a stimulus and cultured for 24 hours. 100 μl of the supernatant was transferred to a 96-well plate and reacted at room temperature for 10 minutes with the addition of 100 μl of GRIESS solution, so as to measure the absorbance at 540 nm, thereby determining an NO inhibitory effect of the compound of Formula 1, and the results are shown in table 4 below.

[2] = Antioxidant effect: free radical scavenging by DPPH method; assay type: biochemical; conditions: 30 minutes, 517 nm, based on vitamin C 0.1% as 100%
Protocol: An antioxidant effect experiment was performed to confirm an antioxidant effect of Examples 1 to 4 and Comparative Examples 1 to 8 through a free radical scavenging effect using a DPPH method according to a known method. 100 μl of Examples 1 to 4 and Comparative Examples 1 to 8 were dispensed into 96 microplates, and 10 μl of a 2,2-diphenyl-1-picrylhydrazyl (DPPH) solution dissolved in ethanol to reach 1 mM was added thereto. After a reaction in 30 minutes later at room temperature, absorbance was measured at 517 nm to measure a free radical scavenging activity. An experiment was performed with vitamin C at a concentration of 0.1% as a control group along with the compositions of Examples 1 to 4 and Comparative Examples 1 to 8. The results are shown in table 3 based on the free radical scavenging effect of vitamin C as 100%.

Row | SMILES | NO production inhibition rate (%) [1] | Free radical scavenging effect (%) [2]
1 | CNC(=N)NCCC[C@H](N)C(=O)O [L-NMMA, L-NG-Monomethylarginine] | 39.14% | –
2 | O=C1O[C@H]([C@@H](O)CO)C(O)=C1O [vitamin C] | – | 100%
